Data published in patent publication US20260022142A1, “MACROCYCLIC IMMUNOMODULATORS” (Bristol-Myers Squibb Company, priority 2022, published 2026).
Each block holds one molecule with its values, some of them ahead of it. Numbered stars: 1 amine (or outer) side, 2 acyl side, 3 side chain; on linkers, the order of the positions; unused ones are H or OH. Bridge positions count the residues as written; N and C are the ends. Square brackets hold non-standard residues; d marks the D form. Peptide text beside a SMILES is read from it. * marks the point of attachment. ξ: configuration not given here. X2 = CC(C)C[C@H](N[*:1])C(=O)C[C@H](C(=O)[*:2])C(C)C; Bip = N[CH](Cc1ccc(-c2ccccc2)cc1)C(=O)O; Phe(3-Me) = Cc1cccc(C[C@H](N)C(=O)O)c1; γGlu = O=C(O)[C@H](CCC(=O)[*:2])N[*:1]; hArg = N=C(N)NCCCC[C@H](N)C(=O)O; 4Pal = N[CH](Cc1ccncc1)C(=O)O; Cha = N[CH](CC1CCCCC1)C(=O)O; Ile(3ξ) = CCC(C)[C@H](N)C(=O)O; aThr = C[C@H](O)[C@H](N)C(=O)O; Thr(3ξ) = CC(O)[C@H](N)C(=O)O; dOrn = NCCC[C@@H](N)C(=O)O; dDab = NCC[C@@H](N)C(=O)O; Carboxymethyl = O=C(O)C*; Orn = NCCC[CH](N)C(=O)O; Aun = NCCCCCCCCCCC(=O)O; Dab = NCC[CH](N)C(=O)O; AEEA = NCCOCCOCC(=O)O

Target: T1, PD-1/PD-L1 interaction (PE-labeled human PD-L1-Ig binding to Jurkat cell line over-expressing human PD-1) (Homo sapiens, UniProt Q15116)
T1 construct: expressed in transfected cells; host or cells: Jurkat
T1 sequence (Q15116 25-288): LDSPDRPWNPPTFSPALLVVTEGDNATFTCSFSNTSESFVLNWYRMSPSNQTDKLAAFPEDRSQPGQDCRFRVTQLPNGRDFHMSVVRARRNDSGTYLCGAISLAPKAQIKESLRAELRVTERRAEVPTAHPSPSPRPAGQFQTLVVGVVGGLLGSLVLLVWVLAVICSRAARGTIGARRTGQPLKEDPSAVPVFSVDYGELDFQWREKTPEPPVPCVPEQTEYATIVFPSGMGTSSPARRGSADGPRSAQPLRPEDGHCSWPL
Assay: Jurkat-PD-1 Cell Binding High-Content Screening Assay (CBA)
Format: cell-based
Details: Jurkat cell line over-expressing human PD-1; PE-labeled PD-L1-Ig 20 nM final; read-out: Jurkat hPD1-PDL1 IC50
How it was run: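 First, compound is added to PD-1-expressing Jurkat cells in serum-containing DMEM and left 2 h at 37° C. Next, PE-conjugated PD-L1-Ig is introduced at 20 nM final concentration for 1 hour. Finally, cells are fixed in 4% paraformaldehyde with Hoechst 33342, washed and imaged.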

Compound: CC(C)C[C@@H]1NC(=O)[C@H](CCN)NC(=O)[C@@H](CC(C)C)NC(=O)[C@H](CCCN)NC(=O)[C@H](C(C)C)NC(=O)[C@H](Cc2ccc(-c3ccccc3)cc2)NC(=O)[C@H](CC(C)C)NC(=O)[C@H](Cc2c[nH]c3ccccc23)NC(=O)[C@H](CC(=O)O)NC(=O)[C@H](Cc2ccncc2)NC(=O)[C@H](Cc2ccc(OCC(=O)O)cc2)NC(=O)CSC[C@@H](C(=O)N[C@H](CCN)C(=O)NCCOCCOCC(=O)NCCCCCCCCCCC(=O)O)NC(=O)[C@H](CO)NC(=O)[C@H](C(C)C)CC1=O [Compound 3072] ({CH2CO}-Y(Carboxymethyl)[4Pal]DWL[Bip]V[Orn][dL][Dab][X2]SC[dDab][AEEA][Aun]-OH; thioether N-13)
- IC50: 13.5 nM

Compound: CCC(C)[C@@H]1NC(=O)[C@H](Cc2ccc(-c3ccccc3)cc2)NC(=O)[C@H](C(C)C)NC(=O)[C@H](Cc2c[nH]c3ccccc23)NC(=O)[C@H](CC(=O)O)NC(=O)[C@H](Cc2ccc(OCC(=O)O)cc2)NC(=O)[C@H](CCCCNC(=N)N)NC(=O)CSC[C@@H](C(=O)NCCOCCOCC(=O)N[C@@H](CCCCN)C(=O)NCCCCCCCCCCC(=O)O)NC(=O)[C@H](CO)NC(=O)[C@H](C(C)C)NC(=O)[C@H](CC2CCCCC2)NC(=O)[C@H](CCN)NC(=O)[C@@H](CC(C)C)NC(=O)[C@H](CCCN)NC1=O (stereo partly drawn) [Compound 3082] ({CH2CO}-[hArg]Y(Carboxymethyl)DWV[Bip][Ile(3ξ)][Orn][dL][Dab][Cha]VSC[AEEA]K[Aun]-OH; thioether N-14)
- IC50: 11.3 nM

Compound: CCC(C)C1NC(=O)C(Cc2ccc(-c3ccccc3)cc2)NC(=O)C(CC(C)C)NC(=O)C(Cc2c[nH]c3ccccc23)NC(=O)C(CC(=O)O)NC(=O)C(Cc2ccc(OCC(=O)O)cc2)NC(=O)C(Cc2ccncc2)NC(=O)CSCC(C(=O)NCCOCCOCC(=O)NC(CCCN)C(=O)NCCCCCCCCCCC(=O)O)NC(=O)C(C(C)O)NC(=O)C(C(C)C)NC(=O)C(CC2CCCCC2)NC(=O)C(CCN)NC(=O)C(CC(C)C)NC(=O)C(CCCN)NC1=O (stereo not shown) [Compound 3089] ({CH2CO}-[4Pal]Y(Carboxymethyl)DWL[Bip]I[Orn]L[Dab][Cha]VTC[AEEA][Orn][Aun]-OH; thioether N-14; configuration not given here)
- IC50: 39.2 nM

Compound: CCC(C)[C@@H]1NC(=O)[C@H](Cc2ccc(-c3ccccc3)cc2)NC(=O)[C@H](C(C)C)NC(=O)[C@H](Cc2c[nH]c3ccccc23)NC(=O)[C@H](CC(=O)O)NC(=O)[C@H](Cc2ccc(OCC(=O)O)cc2)NC(=O)[C@H](C(C)O)NC(=O)CSC[C@@H](C(=O)N[C@H](CCCN)C(=O)NCCOCCOCC(=O)NCCCCCCCCCCC(=O)O)NC(=O)[C@H](CO)NC(=O)[C@H](C(C)C)NC(=O)[C@H](CC(C)C)NC(=O)[C@H](CCN)NC(=O)[C@@H](CC(C)C)NC(=O)[C@H](CCCN)NC1=O (stereo partly drawn) [Compound 3090] ({CH2CO}-[Thr(3ξ)]Y(Carboxymethyl)DWV[Bip][Ile(3ξ)][Orn][dL][Dab]LVSC[dOrn][AEEA][Aun]-OH; thioether N-14)
- IC50: 99.8 nM

Second part, the molecule after the results:

- IC50: 17.2 nM
Compound: CC(C)C[C@@H]1NC(=O)[C@H](CCN)NC(=O)[C@@H](CC(C)C)NC(=O)[C@H](CCN)NC(=O)[C@H](C(C)C)NC(=O)[C@H](Cc2ccc(-c3ccccc3)cc2)NC(=O)[C@H](CC(C)C)NC(=O)[C@H](Cc2c[nH]c3ccccc23)NC(=O)[C@H](CC(=O)O)NC(=O)[C@H](Cc2ccc(OCC(=O)O)cc2)NC(=O)[C@H](Cc2ccc(OCC(=O)O)cc2)NC(=O)CSC[C@@H](C(=O)N[C@H](CCCN)C(=O)NCCOCCOCC(=O)NCCCCCCCCCCC(=O)O)NC(=O)[C@H](CO)NC(=O)[C@H](C(C)C)CC1=O [Compound 3073] ({CH2CO}-Y(Carboxymethyl)Y(Carboxymethyl)DWL[Bip]V[Dab][dL][Dab][X2]SC[dOrn][AEEA][Aun]-OH; thioether N-13)

- IC50: 20.7 nM
Compound: CCC(C)[C@@H]1NC(=O)[C@H](Cc2ccc(-c3ccccc3)cc2)NC(=O)[C@H](CC(C)C)NC(=O)[C@H](Cc2c[nH]c3ccccc23)NC(=O)[C@H](CC(=O)O)NC(=O)[C@H](Cc2ccc(OCC(=O)O)cc2)NC(=O)[C@H]([C@H](C)O)NC(=O)CSC[C@@H](C(=O)NCCOCCOCC(=O)N[C@@H](CCCCN)C(=O)NCCCCCCCCCCC(=O)O)NC(=O)[C@H](CO)NC(=O)[C@H](C(C)C)NC(=O)[C@H](CC(C)C)NC(=O)[C@H](CCN)NC(=O)[C@@H](CC(C)C)NC(=O)[C@H](CCCN)NC1=O (stereo partly drawn) [Compound 3081] ({CH2CO}-[aThr]Y(Carboxymethyl)DWL[Bip][Ile(3ξ)][Orn][dL][Dab]LVSC[AEEA]K[Aun]-OH; thioether N-14)

- IC50: 26.2 nM
Compound: CCC(C)[C@@H]1NC(=O)[C@H](Cc2ccc(-c3ccccc3)cc2)NC(=O)[C@H](C(C)C)NC(=O)[C@H](Cc2c[nH]c3ccccc23)NC(=O)[C@H](CC(=O)O)NC(=O)[C@H](Cc2ccc(OCC(=O)O)cc2)NC(=O)[C@H]([C@H](C)O)NC(=O)CSC[C@@H](C(=O)NCCOCCOCC(=O)N[C@@H](CCCCN)C(=O)NCCCCCCCCCCC(=O)O)NC(=O)[C@H](CO)NC(=O)[C@H](C(C)C)NC(=O)[C@H](CC(C)C)NC(=O)[C@H](CCN)NC(=O)[C@@H](CC(C)C)NC(=O)[C@H](CCCN)NC1=O (stereo partly drawn) [Compound 3083] ({CH2CO}-[aThr]Y(Carboxymethyl)DWV[Bip][Ile(3ξ)][Orn][dL][Dab]LVSC[AEEA]K[Aun]-OH; thioether N-14)

- IC50: 12 nM
Compound: CCC(C)[C@@H]1NC(=O)[C@H](Cc2ccc(-c3ccccc3)cc2)NC(=O)[C@H](CC(C)C)NC(=O)[C@H](Cc2cccc(C)c2)NC(=O)[C@H](CC(=O)O)NC(=O)[C@H](Cc2ccc(OCC(=O)O)cc2)NC(=O)[C@H](Cc2ccc(OCC(=O)O)cc2)NC(=O)CSC[C@@H](C(=O)NCCOCCOCC(=O)N[C@@H](CCC(=O)NCCCCCCCCCCC(=O)O)C(=O)O)NC(=O)[C@H](CO)NC(=O)[C@H](C(C)C)NC(=O)[C@H](CC(C)C)NC(=O)[C@H](CCN)NC(=O)[C@@H](CC(C)C)NC(=O)[C@H](CCCN)NC1=O (stereo partly drawn) [Compound 3085] ({CH2CO}-Y(Carboxymethyl)Y(Carboxymethyl)D[Phe(3-Me)]L[Bip][Ile(3ξ)][Orn][dL][Dab]LVSC[AEEA][γGlu][Aun]-OH; thioether N-14)

- IC50: 26.9 nM
Compound: CCC(C)[C@@H]1NC(=O)[C@H](Cc2ccc(-c3ccccc3)cc2)NC(=O)[C@H](C(C)C)NC(=O)[C@H](Cc2cccc(C)c2)NC(=O)[C@H](CC(=O)O)NC(=O)[C@H](Cc2ccc(OCC(=O)O)cc2)NC(=O)[C@H](C(C)O)NC(=O)CSC[C@@H](C(=O)N[C@H](CCN)C(=O)NCCCCCCCCCCC(=O)O)NC(=O)[C@H](C(C)O)NC(=O)[C@H](C(C)C)NC(=O)[C@H](CC2CCCCC2)NC(=O)[C@H](CCN)NC(=O)[C@@H](CC(C)C)NC(=O)[C@H](CCCN)NC1=O (stereo partly shown) [Compound 3091]

- IC50: 22 nM
Compound: CCC(C)[C@@H]1NC(=O)[C@H](Cc2ccc(-c3ccccc3)cc2)NC(=O)[C@H](C(C)C)NC(=O)[C@H](Cc2cccc(C)c2)NC(=O)[C@H](CC(=O)O)NC(=O)[C@H](Cc2ccc(OCC(=O)O)cc2)NC(=O)[C@H](C(C)O)NC(=O)CSC[C@@H](C(=O)N[C@H](CCN)C(=O)NCCCCCCCCCCCC(=O)O)NC(=O)[C@H](C(C)O)NC(=O)[C@H](C(C)C)NC(=O)[C@H](CC2CCCCC2)NC(=O)[C@H](CCN)NC(=O)[C@@H](CC(C)C)NC(=O)[C@H](CCCN)NC1=O (stereo partly shown) [Compound 3092]
